Consider 1 compound from US20080176902A1, “Salt III” (ASTRAZENECA AB, priority 2005, published 2008).

This experiment has as its target T1, recombinant human CCR1 (Homo sapiens, UniProt P32246).
T1 construct: expressed in transfected cells; membranes prepared from them
T1 sequence (P32246 1-355): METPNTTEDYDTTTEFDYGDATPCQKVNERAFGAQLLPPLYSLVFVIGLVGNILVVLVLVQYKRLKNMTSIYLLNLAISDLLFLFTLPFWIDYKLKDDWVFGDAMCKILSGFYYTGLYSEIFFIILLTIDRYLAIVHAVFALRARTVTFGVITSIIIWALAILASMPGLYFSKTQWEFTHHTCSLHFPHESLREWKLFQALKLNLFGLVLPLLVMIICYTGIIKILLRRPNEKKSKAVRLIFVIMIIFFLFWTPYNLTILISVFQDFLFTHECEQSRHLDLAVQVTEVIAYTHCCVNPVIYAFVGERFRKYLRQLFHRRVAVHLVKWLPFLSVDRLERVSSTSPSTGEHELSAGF
Briefly: Human CCR1 binding assay ([125I] MIP-1α displacement, HEK-CCR1 membranes). The conditions noted are these: HEK293 membranes expressing recombinant human CCR1; 33 pM [125I] MIP-1α.

Each structure is given as a SMILES string. Some results are limits rather than exact numbers.

Method: HEK293 cells, from ECACC, stably expressing recombinant human CCR1 (HEK-CCR1) were used to prepare cell membranes containing CCR1. The membranes were stored at −70° C. The concentration of membranes of each batch was adjusted to 10% specific binding of 33 pM [^125I] MIP-1α.
100 μL of HEK-CCR1 membranes diluted in assay buffer pH 7.4 (137 mM NaCl (Merck, Cat No 1.06404), 5.7 mM Glucose (Sigma, Cat No G5400), 2.7 mM KCl (Sigma, Cat No P-9333), 0.36 mM NaH2PO4×H2O (Merck, Cat No 1.06346), 10 mM HEPES (Sigma, Cat No H3375), 0.1% (w/v) Gelatine (Sigma, Cat No G2625)) with the addition of 17500 units/L Bacitracin (Sigma, Cat No B1025) were added to each well of the 96 well filter plate (0.45 μm opaque Millipore cat no MHVB N4550). […] 12 μl assay buffer with 10% DMSO was added to certain wells (without compound) to detect maximal binding (B0).
12 μL [^125I] MIP-1α, diluted in assay buffer to a final concentration in the wells of 33 pM, was added to all wells. The plates with lid were then incubated for 1.5 hrs at room temperature. After incubation the wells were emptied by vacuum filtration (MultiScreen Resist Vacuum Manifold system, Millipore) and washed once with 200 μl assay buffer. After the wash, all wells received an addition of 50 μL of scintillation fluid (OptiPhase “Supermix”, Wallac Oy, Turko, Finland). Bound [^125I] MIP-1: was measured using a Wallac Trilux 1450 MicroBeta counter. […]

As a reminder, the IC50 is the concentration that gives 50% inhibition. With `CC(=O)Nc1ccc(O)cc1OC[C@@](C)(O)CNC1CCN(Cc2ccc(Cl)cc2)CC1` [N-{2-[((2S)-3-{[1-(4-chlorobenzyl)piperidin-4-yl]amino}-2-hydroxy-2-methylpropyl)oxy]-4-hydroxyphenyl}acetamide ditrifluoroacetate], the concentration for half-maximal inhibition (IC50) was below 0.05 µM.
